Laboratory results: ChEMBL document CHEMBL1201862, “PubChem BioAssay data set” (2004)
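Where inhibition never reached the appropriate level, the endpoint shown equals the highest concentration tested. Otherwise, values were interpolated linearly from a five-concentration, 48-hour dose response in 96-well plates. GI50 = concentration required for 50% inhibition of growth.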 Calls of active or inactive are those of the source. Rule as the data show it: active = GI50 up to about 1.1 µM and inactive = higher.

What was measured:
Experiment in all cases: NCI-60 cell line screen, 48 h
[1] = system: XF498
[2] = system: M19-MEL
[3] = system: DMS-273
[4] = system: DLD-1
[5] = system: KM-20L2
[6] = system: LXFL 529
[7] = system: HOP-18
[8] = system: T47D
[9] = system: RXF 631

Measured: GI50

CC(=O)Nc1ccc(/C=C(\NC(=O)c2ccccc2)C(=O)NNS(=O)(=O)c2ccc(C)cc2)cc1
inactive: [1] > 100 µM | [2] > 100 µM | [3] 18.2 µM | [4] 33 µM | [5] > 100 µM | [6] > 100 µM | [7] > 100 µM

CN(C)/N=C1\CC(c2ccccc2)C(C#N)(C#N)C1(C#N)C#N (stereo not given)
inactive: [8] 21 µM

O=S(=O)(O)c1ccc2c(/N=N/c3ccc(Sc4ccc(/N=N/c5c(O)ccc6cc(S(=O)(=O)O)ccc56)cc4)cc3)c(O)ccc2c1
inactive: [8] > 100 µM

COC(=O)C1CC2CC1C1C2SC(F)(F)C1(F)F (stereo not given)
inactive: [8] > 100 µM

CC[C@@H]1CC[C@@H]2[C@H](CC[C@]3(C)[C@@H](OC(C)=O)CC[C@@H]23)[C@H]1COC(C)=O
inactive: [8] 32.1 µM

COc1cccc(-c2nc3c(C(=O)NCCN(C)C)cccc3[nH]2)c1
inactive: [2] 16.3 µM | [3] 11.3 µM | [4] 18.5 µM | [5] 14.4 µM | [7] 18.4 µM

CCc1nc(N)c2nc(-c3ccc(C#N)cc3)oc2n1
inactive: [8] > 100 µM

O=C(CC1(O)C(=O)Nc2ccccc21)c1ccc2ccccc2c1 (stereo not given)
inactive: [9] > 100 µM | [1] 93.8 µM | [2] > 100 µM | [3] > 100 µM | [4] > 100 µM | [5] > 100 µM | [6] > 100 µM

CCOC(=O)C1=C(C(C)=O)CSC(c2ccccc2)=N1
inactive: [1] > 100 µM | [2] > 100 µM | [3] > 100 µM | [4] > 100 µM | [5] > 100 µM | [7] > 100 µM

CCOC(=O)C(O)(NC(C)=O)C(F)(F)F (stereo not given)
inactive: [8] > 100 µM

CCOC(=O)C(Cl)(NC(=O)OCc1ccccc1)C(F)(F)F (stereo not given)
inactive: [8] > 100 µM

Nc1ccc(-c2nc3ccccc3s2)cc1
inactive: [9] 19.7 µM | [2] 30.8 µM | [8] 20.7 µM | [4] 26.4 µM | [5] 37.8 µM | [6] 17.5 µM | [7] 86.9 µM

O=C(OCCN=C1c2ccccc2CCc2ccccc21)c1ccccc1
inactive: [8] > 100 µM

NCc1ccccc1C1CSCSC1
inactive: [1] > 100 µM | [2] > 100 µM | [3] > 100 µM | [4] > 100 µM | [6] > 100 µM

Cc1nc2cc(/N=N/c3c(C)noc3C)ccc2[nH]1
inactive: [8] 1.67 µM

COc1ccc(-c2c(C(C)=O)c(C)n(C3OC(CO)C(O)C(O)C3O)c(=S)c2C#N)cc1 (stereo not given)
inactive: [8] 34.6 µM

O=C1Sc2ccccc2C(=O)N2CCSC12 (stereo not given)
inactive: [2] > 100 µM | [3] > 100 µM | [4] > 100 µM | [5] > 100 µM | [6] > 100 µM | [7] 25.6 µM

O=C1c2ccccc2C2(O)NC(=S)N(c3ccccc3)C12O (stereo not given)
inactive: [1] > 100 µM | [2] > 100 µM | [4] > 100 µM | [5] > 100 µM | [6] > 100 µM | [7] > 100 µM

O=C(c1ccccc1O)c1cc(-c2ncc3c(=O)c4ccccc4oc3n2)c(-c2ccccc2O)[nH]c1=O
inactive: [1] 29.9 µM | [2] 25.5 µM | [3] 26.8 µM | [4] 24.4 µM | [7] 33.3 µM

CC(=O)c1ccc(NC(=O)/C(=N\NC(N)=O)C(C#N)CC(C)(C)C=O)cc1 (stereo not given)
inactive: [1] > 100 µM | [2] > 100 µM | [3] > 100 µM | [4] > 100 µM | [5] > 100 µM | [6] > 100 µM

Cc1cccc(C)c1NC(=O)CCc1nnc(S)[nH]1
inactive: [9] > 100 µM | [1] > 100 µM | [2] > 100 µM | [4] > 100 µM | [5] > 100 µM | [6] > 100 µM

NC(CCCCCP(=O)(c1ccccc1)C1C=CC=CC1)C(=O)O (stereo not given)
inactive: [8] 57.8 µM

N=C1NC(c2ccc(Cl)cc2)=CC(c2cccc(Cl)c2)S1 (stereo not given)
inactive: [8] 25.4 µM

COC(=O)CC(=O)OSc1ccccc1
inactive: [9] 11.4 µM | [3] 22.7 µM | [4] 17.2 µM | [5] 20 µM

Cc1nc(O)nc2c1C(NCCCN(C)C)c1cc(Cl)ccc1N2 (stereo not given)
inactive: [1] 16.6 µM | [2] 3.91 µM | [3] 12.7 µM | [4] 17.8 µM | [5] 12 µM | [6] 16.9 µM

CC[C@@]12CCC(=S)N(CCSc3ccccc3)[C@@H]1c1c(n(S(=O)(=O)c3ccc(OC)cc3)c3ccccc13)CC2
inactive: [8] > 100 µM

COC(=O)C1=C(C(=O)OC)SC2(S1)C1=C(CCC1)SC(C(=O)OC)=C2C(=O)OC
inactive: [8] 9.25 µM
